US9345258B2, “Synergistic phytochemical composition and a process for preparation thereof” (priority 2011, dated 2016)

Tested on: primary OA
Test: Randomized, single blind, placebo-controlled trial in painful osteoarthritis
Type: in vivo, patients
Conditions: 42 days treatment
Procedure: The present trial was earned out to evaluate the effectiveness of the composition of the invention in the treatment of painful OA [a randomized, single blind, placebo-controlled trial]. 120 patients (37 males and 83 females) with primary OA received either the composition of the invention (500 mg twice daily) or Glucosamine sulphate (750 mg twice daily) or placebo (500 mg twice daily) or combination of the composition of the invention and Glucosamine sulphate for 42 days. During the treatment period two follow up visits on day 21st and day 42nd, efficacy was evaluated in terms of change in the intensity/severity of symptoms (as measured by VAS, WOMAC scale) and examination by orthopaedician (as measured by CGIC).

With N[C@H]1C(O)O[C@H](CO)[C@@H](O)[C@@H]1O.O=S(=O)(O)O (stereo partly shown) [Glucosamine sulphate] the “signs and symptoms of OA” value was “Overall improvement”.
